For this assay, the target named is T1, cholesteryl ester transfer protein (CETP) (Homo sapiens, UniProt P11597).
T1 construct: the source of CETP was human lipoprotein-deprived serum (LPDS); from tissue; host or cells: human lipoprotein-deprived serum (LPDS)
T1 sequence (P11597 18-493): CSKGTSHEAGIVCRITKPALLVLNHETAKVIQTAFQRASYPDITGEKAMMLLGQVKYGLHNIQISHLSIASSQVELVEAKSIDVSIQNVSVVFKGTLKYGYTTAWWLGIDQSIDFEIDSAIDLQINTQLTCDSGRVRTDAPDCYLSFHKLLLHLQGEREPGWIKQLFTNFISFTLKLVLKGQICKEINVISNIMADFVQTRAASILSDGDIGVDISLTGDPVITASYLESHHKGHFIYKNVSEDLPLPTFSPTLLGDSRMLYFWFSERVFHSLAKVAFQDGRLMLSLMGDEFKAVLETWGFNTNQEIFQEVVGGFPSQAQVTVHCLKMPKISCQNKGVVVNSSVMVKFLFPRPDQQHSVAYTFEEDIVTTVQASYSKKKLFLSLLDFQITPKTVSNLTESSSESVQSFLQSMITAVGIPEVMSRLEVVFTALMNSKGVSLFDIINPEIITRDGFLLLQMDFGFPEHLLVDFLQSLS
The assay is described as follows: CETP inhibition SPA assay in the presence of plasma (CETP source: human lipoprotein-deprived serum). In kind it is biochemical. To be noted: CETP source human lipoprotein-deprived serum (LPDS), radiolabeled cholesteryl ester transfer from HDL donor to biotin-labeled LDL acceptor. The protocol:
Activity of CETP inhibitors was determined using a buffer assay system. Partially purified CETP transferred radiolabeled cholesteryl ester from HDL donor particles to biotin-labeled LDL acceptor particles. The reaction was stopped by addition of streptavidin-coupled scintillation proximity assay (SPA) beads. These beads captured the biotinylated acceptor particles and transferred radioactivity was measured. The assay system was purchased and performed according to manufacturer's recommendations (Amersham Biosciences). Inhibitory activity of compounds was determined as percentage of positive control activity containing CETP together with donor and acceptor particles. Serial dilution of compounds was performed in order to determine the IC50 values. Activity of the compounds was subsequently measured in the presence of plasma using the same assay as described above except that the source of CETP was human lipoprotein-deprived serum (LPDS). Inhibitory activity of compounds was determined as percentage of positive control activity containing all the assay components except compound. Serial dilution of compounds was performed in order to determine the IC50 values.
A word on the IC50: it is the concentration that gives 50% inhibition. Turning to `C[Si](C)(C)c1ccc(CN(CCc2cccc(OC(F)(F)F)c2)C(=O)c2c(F)c(Cl)cc3cc[nH]c23)cc1` [Example 1, 5-Chloro-6-fluoro-1H-indole-7-carboxylic acid [2-(3-trifluoromethoxy-phenyl)-ethyl]-(4-trimethylsilanyl-benzyl)-amide], the IC50 was found to be 21 nM.

With `C[Si](C)(C)c1ccc(CN(CCc2cccc(C(F)(F)F)c2)C(=O)c2c(F)c(Cl)cc3cc[nH]c23)cc1` [Example 3, 5-Chloro-6-fluoro-1H-indole-7-carboxylic acid [2-(3-trifluoromethyl-phenyl)-ethyl]-(4-trimethylsilanyl-benzyl)-amide], the IC50 came to 16 nM.

Regarding `CC(C)[Si](C)(C)c1ccc(CN(CCc2cccc(C(F)(F)F)c2)C(=O)c2c(F)c(Cl)cc3cc[nH]c23)cc1` [Example 6, 5-Chloro-6-fluoro-1H-indole-7-carboxylic Acid [4-(isopropyl-dimethyl-silanyl)-benzyl]-[2-(3-trifluoromethyl-phenyl)-ethyl]-amide], the IC50 is 44 nM.

Values taken from patent US7572823B2, “Heteroaryl carboxamide compounds” (Hoffmann-La Roche Inc., priority 2006, dated 2009).
